This note sets out measurements from PubChem BioAssay AID248 (DTP/NCI, 2004).

The experiment concerns L1210 leukemia ip in BDF1 mice, survival T/C. In words: NCI In Vivo Anticancer Drug Screen. Data for tumor model L1210 Leukemia (intraperitoneal) in B6D2F1 (BDF1) mice. The note with it: endpoint: mean survival time, higher = longer survival. The method in brief:
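In this screen, tumor-bearing mice given compound are compared to those given vehicle, and their survival values are reported as a treated-to-control quotient.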

Setting [1] is: dose: 100.0 mg/kg/injection, schedule: Q01DX009 (ip), vehicle: Klucel (hydroxypropylcellulose) (HPC).
[2] abbreviates: dose: 400.0 mg/kg/injection, schedule: Q01DX001 (ip), vehicle: carboxymethylcellulose (CMC).
Where [3] appears, read: dose: 200.0 mg/kg/injection, schedule: Q04DX003 (ip), vehicle: saline with Tween-80.
[4] abbreviates: dose: 400.0 mg/kg/injection, schedule: Q04DX003 (ip), vehicle: saline with Tween-80.
The mark [5] stands for this setting: dose: 100.0 mg/kg/injection, schedule: Q01DX001 (ip), vehicle: carboxymethylcellulose (CMC).
Setting [6] is: dose: 200.0 mg/kg/injection, schedule: Q01DX001 (ip), vehicle: carboxymethylcellulose (CMC).
The mark [7] stands for this setting: dose: 100.0 mg/kg/injection, schedule: Q04DX003 (ip), vehicle: Klucel (hydroxypropylcellulose) (HPC).
[8] abbreviates: dose: 100.0 mg/kg/injection, schedule: Q04DX003 (ip), vehicle: saline with Tween-80.
Setting [9] is: dose: 100.0 mg/kg/injection, schedule: Q04DX002 (ip), vehicle: saline with Tween-80.
Where [10] appears, read: dose: 200.0 mg/kg/injection, schedule: Q04DX002 (ip), vehicle: saline with Tween-80.
Setting [11] is: dose: 400.0 mg/kg/injection, schedule: Q04DX002 (ip), vehicle: saline with Tween-80.
The mark [12] stands for this setting: dose: 100.0 mg/kg/injection, schedule: Q04DX003 (ip), vehicle: saline.
[13] abbreviates: dose: 200.0 mg/kg/injection, schedule: Q04DX003 (ip), vehicle: saline.
The mark [14] stands for this setting: dose: 400.0 mg/kg/injection, schedule: Q04DX003 (ip), vehicle: saline.
The mark [15] stands for this setting: dose: 75.0 mg/kg/injection, schedule: Q01DX001 (ip), vehicle: other.
The mark [16] stands for this setting: dose: 150.0 mg/kg/injection, schedule: Q01DX001 (ip), vehicle: other.
Where [17] appears, read: dose: 300.0 mg/kg/injection, schedule: Q01DX001 (ip), vehicle: other.

Inconclusive results and toxic doses are left out.

In the case of `O=NN(CCCl)C(=O)NCC1CCC(CNC(=O)N(CCCl)N=O)CC1` (stereo not given), the T/C is, setting by setting: (dose: 6.2 mg/kg/injection, schedule: Q01DX009 (ip), vehicle: carboxymethylcellulose (CMC)) 113 % of control; (dose: 12.5 mg/kg/injection, schedule: Q01DX009 (ip), vehicle: carboxymethylcellulose (CMC)) 111 % of control; (dose: 25.0 mg/kg/injection, schedule: Q01DX009 (ip), vehicle: Klucel (hydroxypropylcellulose) (HPC)) 101 % of control; (dose: 25.0 mg/kg/injection, schedule: Q01DX009 (ip), vehicle: carboxymethylcellulose (CMC)) 122 % of control; (dose: 50.0 mg/kg/injection, schedule: Q01DX009 (ip), vehicle: Klucel (hydroxypropylcellulose) (HPC)) 98 % of control; (dose: 53.0 mg/kg/injection, schedule: Q01DX001 (ip), vehicle: carboxymethylcellulose (CMC)) 117 % of control. Moreover, the T/C is, setting by setting: (dose: 80.0 mg/kg/injection, schedule: Q01DX001 (ip), vehicle: carboxymethylcellulose (CMC)) 117 % of control; under setting [1], 109 % of control; (dose: 177.0 mg/kg/injection, schedule: Q01DX001 (ip), vehicle: carboxymethylcellulose (CMC)) 150 % of control; (dose: 177.0 mg/kg/injection, schedule: Q01DX009 (ip), vehicle: carboxymethylcellulose (CMC)) 278 % of control; (dose: 266.0 mg/kg/injection, schedule: Q01DX001 (ip), vehicle: carboxymethylcellulose (CMC)) 225 % of control; (dose: 266.0 mg/kg/injection, schedule: Q01DX009 (ip), vehicle: carboxymethylcellulose (CMC)) 188 % of control. Further, the T/C is 275 % of control under setting [2]; 103 % of control (dose: 400.0 mg/kg/injection, schedule: Q01DX009 (ip), vehicle: carboxymethylcellulose (CMC)); 250 % of control (dose: 600.0 mg/kg/injection, schedule: Q01DX001 (ip), vehicle: carboxymethylcellulose (CMC)).
For `Cc1ccc(S(=O)(=O)Nc2cc(Cl)c(I)cc2Cl)cc1`, the T/C was 90 % of control under setting [3] and 101 % of control under setting [4].
For the molecule `CC(=O)Oc1ccc(NC(=O)c2ccccc2)c2ccccc12`, the T/C is, setting by setting: under setting [5], 110 % of control; under setting [6], 100 % of control; under setting [2], 94 % of control.
As for `CC12OC3(C)C4C(=O)OC1C1(C)OC4(C)C3C(=O)OC21`, the T/C was 102 % of control (dose: 100.0 mg/kg/injection, schedule: Q01DX009 (ip), vehicle: saline with Tween-80); 101 % of control (dose: 200.0 mg/kg/injection, schedule: Q01DX009 (ip), vehicle: saline with Tween-80); 98 % of control (dose: 400.0 mg/kg/injection, schedule: Q01DX009 (ip), vehicle: saline with Tween-80).
`Clc1nc2nc[nH]c2nc1Cl`: the T/C is, setting by setting: (dose: 25.0 mg/kg/injection, schedule: Q04DX003 (ip), vehicle: saline with Tween-80) 98 % of control; (dose: 50.0 mg/kg/injection, schedule: Q04DX003 (ip), vehicle: saline with Tween-80) 104 % of control; under setting [7], 92 % of control; under setting [8], 86 % of control.
In the case of `NC1=C(Cl)C(=O)C(N)=C(Cl)C1=O`, the T/C is, setting by setting: under setting [8], 98 % of control; under setting [3], 98 % of control; under setting [4], 88 % of control.
Take `O=C1CCC(Cc2cccc3ccccc23)N1` (stereo not given): the T/C reads like this: under setting [9], 97 % of control; under setting [10], 91 % of control; under setting [11], 94 % of control.
With `CC(=O)Nc1c(C)cccc1[N+](=O)[O-]`, under “dose: 100.0 mg/kg/injection, schedule: Q01DX001 (ip), vehicle: saline with Tween-80”, the T/C was 94 % of control.
Take `O=C(COc1ccc(Cl)c(Cl)c1)N(Cc1ccccc1)Cc1cccnc1`: the T/C (dose: 100.0 mg/kg/injection, schedule: Q01DX001 (ip), vehicle: Klucel (hydroxypropylcellulose) (HPC)) is 99 % of control; the T/C under setting [1] is 98 % of control; the T/C under setting [7] was 100 % of control; the T/C (dose: 200.0 mg/kg/injection, schedule: Q01DX001 (ip), vehicle: Klucel (hydroxypropylcellulose) (HPC)) was 96 % of control; the T/C (dose: 200.0 mg/kg/injection, schedule: Q01DX009 (ip), vehicle: Klucel (hydroxypropylcellulose) (HPC)) is 116 % of control; the T/C (dose: 200.0 mg/kg/injection, schedule: Q04DX003 (ip), vehicle: Klucel (hydroxypropylcellulose) (HPC)) was 96 % of control. Moreover, the T/C was 96 % of control (dose: 400.0 mg/kg/injection, schedule: Q01DX001 (ip), vehicle: Klucel (hydroxypropylcellulose) (HPC)); 100 % of control (dose: 400.0 mg/kg/injection, schedule: Q01DX009 (ip), vehicle: Klucel (hydroxypropylcellulose) (HPC)); 98 % of control (dose: 400.0 mg/kg/injection, schedule: Q04DX003 (ip), vehicle: Klucel (hydroxypropylcellulose) (HPC)).
For `COc1cc(/C(C)=C2/SC(=S)NC2=O)cc(OC)c1OC`, the T/C is, setting by setting: under setting [5], 92 % of control; under setting [6], 90 % of control; under setting [2], 95 % of control.
On to `CC(=O)Nn1nnnc1N`, for which the T/C runs as follows: under setting [12], 99 % of control; under setting [13], 91 % of control; under setting [14], 105 % of control.
Consider `CC(C)([CH2][Sn]([CH2]C(C)(C)c1ccccc1)[CH2]C(C)(C)c1ccccc1)c1ccccc1.CC(C)([CH2][Sn]([CH2]C(C)(C)c1ccccc1)[CH2]C(C)(C)c1ccccc1)c1ccccc1`, for which the T/C by setting is: under setting [15], 101 % of control; under setting [16], 106 % of control; under setting [17], 94 % of control.
Turning to `C=CCNc1ccc([N+](=O)[O-])cc1[N+](=O)[O-]`, the T/C is, setting by setting: (dose: 100.0 mg/kg/injection, schedule: Q01DX001 (ip), vehicle: steriod suspending solution) 91 % of control; (dose: 200.0 mg/kg/injection, schedule: Q01DX001 (ip), vehicle: steriod suspending solution) 98 % of control.
As to `O=C(O)c1ccccc1N=Cc1ccccc1`, the T/C under setting [9] was 93 % of control, the T/C under setting [10] is 120 % of control and the T/C under setting [11] was 101 % of control.
For `O=C(NCCCNC(=O)Nc1cccc(C2=NCCCN2)c1)Nc1cccc(C2=NCCCN2)c1`, the T/C (dose: 0.5 mg/kg/injection, schedule: Q01DX Z (ip), vehicle: carboxymethylcellulose (CMC)) is 104 % of control; the T/C (dose: 1.0 mg/kg/injection, schedule: Q01DX Z (ip), vehicle: carboxymethylcellulose (CMC)) is 106 % of control; the T/C (dose: 2.0 mg/kg/injection, schedule: Q01DX Z (ip), vehicle: carboxymethylcellulose (CMC)) is 96 % of control.
For the molecule `O=C1NC2(CCCCC2)C(=O)N1CCCl`, the T/C was 101 % of control (dose: 50.0 mg/kg/injection, schedule: Q04DX003 (ip), vehicle: saline); 109 % of control under setting [12]; 106 % of control under setting [13]; 101 % of control under setting [14].
For the molecule `O=C(n1ccnc1)C(F)(F)F`, the T/C is 105 % of control (dose: 100.0 mg/kg/injection, schedule: Q01DX001 (ip), vehicle: saline sonified); 109 % of control under setting [12]; 108 % of control (dose: 200.0 mg/kg/injection, schedule: Q01DX001 (ip), vehicle: saline sonified); 91 % of control under setting [13]; 101 % of control (dose: 400.0 mg/kg/injection, schedule: Q01DX001 (ip), vehicle: saline sonified); 97 % of control under setting [14].
On to `C/C=C/CC1(CCC(C)C)C(=O)NC(=O)NC1=O`, for which the T/C (dose: 75.0 mg/kg/injection, schedule: Q01DX001 (ip), vehicle: acetone) is 95 % of control; the T/C under setting [15] was 101 % of control; the T/C (dose: 150.0 mg/kg/injection, schedule: Q01DX001 (ip), vehicle: acetone) was 101 % of control; the T/C under setting [16] was 101 % of control; the T/C under setting [17] is 105 % of control.
